In patent US9962403B2, “Formulation drug of sodium ion and calcium ion for treating cancer, tumor and nonmalignancy” (priority 2011, dated 2018):
Like-named read-outs stand apart in the source and are kept apart here.

Experiments:
[1] = for toxicity of high concentration solutions injected intramuscularly: paralysis of legs, cardiovascular and pulmonary failure, death
Description: First, potential roles of Na^+, K^+, Ca^2+ and Mg^2+ in treatment of tumor and cancer were tested. In vivo experiments in BALB/c mice were performed. High concentration solutions of Na^+, K^+, Ca^2+ and Mg^2+ were injected intramuscularly. […] Experiments were focused on high concentrations of Na^+ and Ca^2+ solutions.
At the beginning, in vivo toxicity of high concentrations of Na^+, Ca^2+, K^+, and Mg^2+ in BALB/c mice was examined.
BALB/c mice were housed and inbreeded in the contracted university animal facilities that was in accordance with the NIH regulation. Body weight of the BALB/c mice at the experiment was 30±g. The toxicity test was performed using intramuscular injection with 0.2ml of 35% NaCl, 35% CaCl2, 34% KCl or 35% MgCl2 in a mouse, respectively.
In total, 20 BALB/c mice (10 males and 10 females) were randomly divided into 5 groups, with 4 mice in each group.

tumors = experiment: Earlier intratumoral injection of arsenic; type: in vivo, mice
Excerpt: An occasional opportunity sparked this invention. […] One day, the inventor went shopping in a Chinese supermarket and bought a dozen salted duck eggs. On the way back home, […] wondered why these salted duck eggs could be preserved at room temperature for years without rotting. The answer is that proteins and yolks in salted duck eggs are coagulated or clotted by high concentration of salt (sodium chloride), in particular by high concentration of sodium ions. The inventor linked this phenomenon to cell biology, cell physiology, membrane potential, ion science and cancer treatment, and presumed that high concentrations of sodium chloride might coagulate or clot proteins in cancer cells like what occurs in salted duck eggs.

[2] = tested on: 18 types of human cancer cell lines; experiment: Ex vivo killing test in tissue culture (Trypan blue exclusion or flow cytometry); type: cell-based
Description: Tumor cells were cultured in DMEM or RPMI1640 medium supplemented with 10% fetal bovine serum (FCS). The medium in the control group was free of the “medicinal ion bomb” solution. […] Mortality of cancer cells was evaluated by Trypan blue exclusion test or flow cytometry.
The role of the “medicinal ion bomb” in killing cancer cells was tested in tissue culture. Cancer cells were seeded in Petri dish using DMEM or RPMI1640 medium supplemented with 10% FCS. Each type of cancer cell line was prepared at 2×10^6 cells/ml in a 5ml plastic tube. […] Three to five minutes later, 0.5% Trypan Blue was added and mixed with the cell suspension for 2 minutes. The number of dead cancer cells was counted under an inverted microscope. Selected samples of treated cancer cell suspension for flow cytometer were prepared in phosphate-buffered saline (PBS) and mortality of cells was assayed using flow cytometer (Beckman Coulter Inc., CA).

[3] = tested on: MCF7 human breast cancer cells; experiment: Fluorescent labeled Na+/Ca2+ probe technique, influx and death of cancer cells; type: cell-based
Excerpt: Fluorescent labeled ion probe technique was used in study of the influx of Na^+ and Ca^2+ from the extracellular fluid into intracellular fluid of cancer cells.

[4] = tested on: MCA207 mouse sarcoma, MC38 mouse colorectal cancer and B16F1 mouse melanoma; settings: for occurrence of tumor necrosis: high concentrations, evaluated 24, 48 and 72 hours after treatment; for average necrosis of all treated tumors: 48 hours
Description: Three animal tumor models of MCA207 mouse sarcoma, MC38 mouse colorectal cancer and B16F1 mouse melanoma were established in C57BL6 mice. The treatment of intratumoral injection started when tumors reached 8mm×8mm in size.
Thirty-six C57BL6 tumor mice were randomly divided into three groups according to tumor types (12 animals in each group). Then, animals in each group were further divided into 4 subgroups (3 tumor mice in each subgroup). Tumor animals in subgroup-1, as the control, were treated by intratumoral injection with 0.1ml of normal saline. Tumor animals in subgroup-2 were treated by intratumoral injection with 0.1ml of various concentrations of sodium chloride solution.
Twenty-four, 48 and 72 hours after treatment, experimental results were evaluated by measuring the dimension of necrotic area of the treated tumors using a ruler.

multiple glomus tumors = settings: 23.4% solution; 4 sessions of intralumenal injection in 6 months; one patient; cited from earlier work
liver tumor = settings: 36.5% hypertonic saline; cited from earlier work
[5] = 0.2ml of 35% NaCl, 35% CaCl2, 34% KCl or 35% MgCl2, mouse 30 g

SMILES: [Cl-].[K+] [KCl]
- outcome of animals after intramuscular injection [1, 5]: died from cardiopulmonary failure 3 hours after treatment
- toxicity of high concentration solutions injected intramuscularly [1]: toxic

SMILES: [Cl-].[Cl-].[Mg+2] [MgCl2]
- outcome of animals after intramuscular injection ([1]; mouse, in vivo): not well absorbed
- toxicity of high concentration solutions injected intramuscularly [1]: toxic

SMILES: [AsH3] [arsenic]
- treatment outcome (tumors): did not work well

SMILES: [Ca+2].[Cl-].[Cl-] [calcium chloride solution, calcium chloride]
- effect of tissue culture medium containing 250 mM of Ca2+ [2]: induced sickness, apoptosis and death
- effect of Ca2+ solutions on cancer cells ([3]; 250 mM, 1.0 M, 1.5 M, 2.0 M and 3.0 M, Ca2+ probe fluorescence microscopy): immediate sickness or death of cancer cells
- outcome of animals after intramuscular injection ([1]; 0.2ml of 17.5% CaCl2): survived the experiment
- outcome of animals after intramuscular injection [1, 5]: died in 3 hours after treatment
- maximal effective treatment concentration ([4]; Ca2+ alone or in combination, intratumoral injection, room temperature): 6.0 M
- local toxicity at the injection site ([4]; high concentration of calcium chloride solution): toxic that causes unhealed wound at the injection site
- occurrence of tumor necrosis [4]: necrosis occurred in all tumors
- necrosis of treated tumors ([4]; single intratumoral injection 0.1 ml of 250 mM, 1.0 M, 1.5 M, 2.0 M and 3.0 M, 48 hours posttreatment): coagulating necrosis of all treated tumors

SMILES: [Cl-].[Na+] [sodium chloride solution, sodium chloride]
- time to kill MCF7 cells ([3]; 5.0479 M of Na+ solution alone): 20 ± 4 s
- outcome of animals after intramuscular injection [1, 5]: survived the experiment
- average necrosis of all treated tumors ([4]; 3.0 M solution): 30%±10
- minimal effective treatment concentration ([4]; Na+ alone or in combination, intratumoral injection, room temperature, listed as Na^+ solution): 2.0 M
- occurrence of tumor necrosis [4]: necrosis occurred in all tumors
- average necrosis of all treated tumors ([4]; single intratumoral injection 0.1 mL of 5.0479 M solution): 90%± 5
- average necrosis of all treated tumors ([4]; single intratumoral injection 0.1 mL of 5.0479 M solution, listed as Na^+ solution): 90%±5
- treatment outcome (multiple glomus tumors): did not result in successful treatment
- treatment outcome (liver tumor): none of the tumors were successfully treated
